Test results from publication PMC7405012, “Detection of Chaetomium globosum, Ch. cochliodes and Ch. rectangulare during the Diversity Tracking of Mycotoxin-Producing Chaetomium-like Isolates Obtained in Buildings in Finland” (Toxins, 2020).
In brackets after ≈: the same amount, converted by molar mass. Like-named read-outs stand apart in the source and are kept apart here.

Key:
Type in all cases: cell-based
[1] = test system: Ch. cochliodes OT7b; assay: Resistance to biocides: ascospore germination; settings: strain OT7b, indoor Ch. cochliodes
Description: (§1) The toxicity of biocides and chemicals towards the indoor Chaetomium-like isolates and the reference indoor strains of the genera Aspergillus, Paecilomyces, Penicillium and Trichoderma was assessed in parallel with the six parameters presented in the Supplementary Materials: (1) germ tube assay (Figure S3); (2) estimation of turbidity (Figure S4); (3) visual emission of fluorescence (excitation at 360 nm); (4) visual resporulation of conidia; (5) inhibition of glucose consumption; and (6) resazurin reduction. All assays were performed in malt extract broth (12 g L^−1 malt extract, 7.2 µmol mL^−1 glucose, pH 5.5; Scharlab, Barcelona, Spain) in 96-well microtiter plates as described for the ICP assay.
(§2) The assays measuring inhibition of germination of conidia were done with spore suspensions of 1–2 × 10^6 fungal spores mL−^1. The tests were performed in malt extract broth (Oxoid, Hampshire United Kingdom) 12 g in 1 L, pH 5.5, glucose 7.1 mmol L^−1, and performed on microtiter plates as described by Bencsik et al. for the ICP assay. The germ tube germination is visualized in Figure S3, and the tests estimating turbidity and emission of fluorescence provoked by the germinated and metabolically active conidia and C. globosum ascospores are visualized in Figures S4 and S5. Examples of the tests estimating fluorescence emission, turbidity and re-sporulation of conidia and ascospores are compared in Figure S5. The difference of the endpoints measured with the different assays was between […]. The resazurin reduction assays (Figure S6) were performed as described for the ICP assay, except that the microtiter plates were visually inspected for the change of the blue/violet color of resazurin (indicating inhibition of germination of the exposed conidia) to the […] (indicating metabolic activity and germination of the exposed conidia).
(§3) The formation of germ tubes was inspected by a phase-contrast microscope (Olympus CKX41, Tokyo, Japan; magnification 400×) and an image recording software (Cellsense® standard version 11.0.06, Olympus Soft Imaging Solutions GmbH, Münster, Germany, 2012) after 1 and 2 days of incubation at 28 °C. The EC50 corresponded to the inhibition of 50% (estimated as the concentration between EC0 and EC100) of the conidia compared to the ethanol control (the growth medium containing 1% of ethanol). The tests were run in triplicate and calibrated with triclosan (CAS: 3380-34-5; Sigma Chemical Co., St. Louis, MO, USA) giving a mean SD of ±<20%.

[2] = test system: Ch. cochliodes OT7; assay: Resistance to biocides: ascospore germination; settings: strain OT7, indoor Ch. cochliodes
Description: as §1, §2, §3

[3] = test system: Ch. rectangulare M015; assay: Resistance to biocides: ascospore germination; settings: strain M015, indoor Ch. rectangulare
Description: as §1, §2, §3

[4] = test system: murine neuroblastoma cells (MNA); assay: Inhibition of cell proliferation (ICP) assay, MNA
Description: The plate-grown biomass of the fungal pure cultures (100–300 mg) was extracted with ethanol as described earlier. The toxicity assays, namely BSMI assay after exposure for 30 min (rapid inhibition) and for one day (slow inhibition), SMID assay and ICP assay, were all described previously. The toxicity assays involving the ethanol extracts obtained from pure fungal cultures were performed using porcine cells (sperms and somatic cell lines) as indicators according to methods described before. The calculation of EC50—the half maximal effective concentration for the ethanol-dry substances and pure mycotoxins in the BSMI, SMID and ICP assays—were described previously.
The continuous cell line PK-15 (porcine kidney cells) and a malignant cell line (MNA cell line) provided by EVIRA (Helsinki, Finland) were used in the ICP assay. 5,5′,6,6′-tetrachloro-1,1′,3,3′-tetraethyl-benzimidazolylcarbocyanine iodide (JC-1, 3520-43-2), PI (25535-16-4) and calcein-AM (148504-34-1) were obtained from Invitrogen (Carlsbad, CA, USA). Alamethicin A4665 (T. arundinaceum) (CAS 27061-78-5), a mixture of alamethicin F50 peptaibols (MW 1962, 1976, 1976 and 1990), chaetoglobosin A (CAS 50335-03-0), sterigmatocystin (CAS 10048-13-5) and ochratoxin A (CAS 303-47-9) were obtained from Sigma-Aldrich (St. Louis, MO, USA). Malt extract and tryptic soy agar were obtained from Scharlab (Barcelona, Spain). The other chemicals were of analytical grade and were purchased from local suppliers. The biocides and the wetting agent Genapol-080 were purchased from Sigma-Aldrich Finland. The fungicide Boracol 10Rh was obtained from a local supplier. The selected biocides were Borax (600 µg mL^−1; sodium tetraborate, CAS: 1330-43-4), Boracol 10Rh containing disodium octaborate tetrahydrate (CAS: 12280-03-04) and didecyldimethylammonium chloride [CAS: 7173-51-5]), PHMB (CAS: 27083-27-8), phenoxyethanol (CAS: 122-99-6), chloramine, triclosan (5-Chloro-2-(2,4-dichlorophenoxy)phenol, CAS: 3380-34-5) and the wetting agent Genapol X-080 (CAS: 9043-30-5). Genapol X-080 and the biocides were purchased from Sigma-Aldrich, except for Boracol 10Rh, which was purchased from a local supplier.

[5] = test system: porcine kidney cells (PK-15); assay: cells
[6] = test system: Penicillium sp. 35/skk; assay: Resistance to biocides: conidial germination; settings: strain 35/skk, indoor Penicillium sp.
Description: as §1, §2, §3

[7] = test system: Aspergillus section Nigri Asp 32; assay: Resistance to biocides: conidial germination; settings: strain Asp 32, indoor Aspergillus section Nigri
Description: as §1, §2, §3

[8] = test system: Penicillium sp. Vaip/skk; assay: Resistance to biocides: conidial germination; settings: strain Vaip/skk, indoor Penicillium sp.
Description: as §1, §2, §3

[9] = test system: Aspergillus westerdijkiae PP3; assay: Resistance to biocides: conidial germination; settings: strain PP3, Aspergillus westerdijkiae
Description: as §1, §2, §3

[10] = test system: Aspergillus westerdijkiae AW/KL; assay: Resistance to biocides: conidial germination; settings: strain AW/KL
Description: as §1, §2, §3

[11] = test system: Indoor Trichoderma atroviride H1/226; assay: Resistance to biocides: conidial germination; settings: strain H1/226, indoor Trichoderma atroviride
Description: as §1, §2, §3

[12] = test system: Penicillium sp. 5/skk; assay: Resistance to biocides: conidial germination; settings: strain 5/skk, indoor Penicillium sp.
Description: as §1, §2, §3

[13] = test system: Aspergillus versicolor Gas/226; assay: Resistance to biocides: conidial germination; settings: strain Gas/226, Aspergillus versicolor
Description: as §1, §2, §3

[14] = test system: Penicillium sp. 20b/skk; assay: Resistance to biocides: conidial germination; settings: strain 20b/skk, indoor Penicillium sp.
Description: as §1, §2, §3

[15] = Mus musculus, Neuroblastoma cell, mammalian cell line MNA (ICT assay), read-out: EC50
[16] = Sus scrofa, mammalian cell line PK-15 (ICT assay), read-out: EC50
[17] = mammalian cell line MNA (ICT assay)
[18] = mammalian cell line PK-15 (ICT assay)

O=BOB(O)OB(O)OB=O [Borax, sodium tetraborate]
EC50 ([1]; read-out: EC50): 750 mg/L | EC50 ([2]; read-out: EC50): 750 mg/L | EC50 ([3]; read-out: EC50): 5000 mg/L | EC50 [4, 15]: 150 mg/L | EC50 [5, 16]: 600 mg/L | EC50 ([6]; SP.35/SKK, read-out: EC50): 5000 mg/L | EC50 ([7]; read-out: EC50): ≥ 5000 mg/L | EC50 ([8]; read-out: EC50): > 5000 mg/L | EC50 ([9]; read-out: EC50): 5000 mg/L | EC50 ([10]; read-out: EC50): 2500 mg/L | EC50 ([11]; read-out: EC50): 1200 mg/L | EC50 ([12]; SP.5/SKK, read-out: EC50): 2500 mg/L | EC50 ([13]; read-out: EC50): 5000 mg/L | EC50 ([14]; SP.20B/SKK, read-out: EC50): > 5000 mg/L

C/C1=C\[C@@H](C)C/C=C/[C@H]2[C@@H]3O[C@]3(C)[C@@H](C)[C@H]3[C@H](Cc4c[nH]c5ccccc45)NC(=O)[C@]32C(=O)/C=C/C(=O)[C@@H]1O [Chaetoglobosin A, chaetoglobosin A]
EC50 ([4]; Mus musculus, Neuroblastoma cell, 48 h, MNA, 2 days, 37 °C, read-out: EC50 ICP MNA 2 days): 1 mg/L (≈ 1.89 µM) | EC50 ([5]; Sus scrofa, 48 h, PK-15, 2 days, 37 °C, read-out: EC50 ICP PK-15 2 days): 3 mg/L (≈ 5.67 µM)

NCl [Chloramine, chloramine]
EC50 [3]: 1200 mg/L (≈ 23300 µM) | EC50 [4, 17]: 80 mg/L (≈ 1550 µM) | EC50 [5, 18]: 150 mg/L (≈ 2910 µM) | EC50 [6]: 600 mg/L (≈ 11700 µM) | EC50 [8]: 600 mg/L (≈ 11700 µM) | EC50 [9]: 600 mg/L (≈ 11700 µM) | EC50 [10]: 600 mg/L (≈ 11700 µM) | EC50 [12]: 600 mg/L (≈ 11700 µM) | EC50 [14]: 600 mg/L (≈ 11700 µM)

OCCOc1ccccc1 [Phenoxy-ethanol, phenoxyethanol]
EC50 ([1]; read-out: EC50): 3000 mg/L (≈ 21700 µM) | EC50 ([2]; read-out: EC50): 3000 mg/L (≈ 21700 µM) | EC50 ([3]; read-out: EC50): 1500 mg/L (≈ 10900 µM) | EC50 [4, 15]: 400 mg/L (≈ 2900 µM) | EC50 [5, 16]: 1500 mg/L (≈ 10900 µM) | EC50 ([6]; SP.35/SKK, read-out: EC50): 350 mg/L (≈ 2530 µM) | EC50 ([7]; read-out: EC50): 3000 mg/L (≈ 21700 µM) | EC50 ([8]; read-out: EC50): 800 mg/L (≈ 5790 µM) | EC50 ([9]; read-out: EC50): 1500 mg/L (≈ 10900 µM) | EC50 ([10]; read-out: EC50): 1500 mg/L (≈ 10900 µM) | EC50 ([11]; read-out: EC50): 1500 mg/L (≈ 10900 µM) | EC50 ([12]; SP.5/SKK, read-out: EC50): 1500 mg/L (≈ 10900 µM) | EC50 ([13]; read-out: EC50): 400 mg/L (≈ 2900 µM) | EC50 ([14]; SP.20B/SKK, read-out: EC50): 1500 mg/L (≈ 10900 µM)

Oc1cc(Cl)ccc1Oc1ccc(Cl)cc1Cl [Triclosan, 5-Chloro-2-(2,4-dichlorophenoxy)phenol]
EC50 ([1]; read-out: EC50): 4 mg/L (≈ 13.8 µM) | EC50 ([2]; read-out: EC50): 4 mg/L (≈ 13.8 µM) | EC50 ([3]; read-out: EC50): 2 mg/L (≈ 6.91 µM) | EC50 [4, 15]: 4 to 8 mg/L (≈ 13.8 to 27.6 µM) | EC50 [5, 16]: 8 to 15 mg/L (≈ 27.6 to 51.8 µM) | EC50 ([7]; read-out: EC50): 16 mg/L (≈ 55.3 µM) | EC50 ([8]; read-out: EC50): 4 mg/L (≈ 13.8 µM) | EC50 ([9]; read-out: EC50): 16 mg/L (≈ 55.3 µM) | EC50 ([10]; read-out: EC50): 16 mg/L (≈ 55.3 µM) | EC50 ([11]; read-out: EC50): 16 mg/L (≈ 55.3 µM) | EC50 ([12]; SP.5/SKK, read-out: EC50): 2 mg/L (≈ 6.91 µM) | EC50 ([13]; read-out: EC50): 16 mg/L (≈ 55.3 µM) | EC50 ([14]; SP.20B/SKK, read-out: EC50): 2 mg/L (≈ 6.91 µM)

polyhexamethylene biguanide hydrochloride [PHMB]
EC50 [1]: 8 mg/L | EC50 [2]: 8 mg/L | EC50 [3]: 4 mg/L | EC50 [4, 17]: 4 mg/L | EC50 [5, 18]: 15 mg/L | EC50 [6]: 30 mg/L | EC50 [7]: 60 mg/L | EC50 [8]: 8 mg/L | EC50 [9]: 60 mg/L | EC50 [10]: 60 mg/L | EC50 [11]: 2 mg/L | EC50 [12]: 8 mg/L | EC50 [13]: 60 mg/L | EC50 [14]: 30 mg/L
